Consider five compounds from patent US9650395B2, “Antibacterial compounds and methods for use” (PTC Therapeutics, Inc., priority 2011, dated 2017).

Assay [1] concerns control Gram-negative E. coli 25922 strain. Kind of assay: Antibacterial activity, microbroth dilution MIC, E. coli 25922. The conditions noted are these: Escherichia coli; E. coli 25922, microbroth dilution; read-out: MIC, 25922. It is filed as cell-based, Escherichia coli. A general note: Broth dilution looks for growth in wells or tubes with falling amounts of substance.
Assay [2] relates to Klebsiella pneumoniae (K. pneumoniae) 35657. Kind of assay: Antibacterial activity, MIC, K. pneumoniae 35657. Type of assay: cell-based. As to conditions: Klebsiella pneumoniae.
Assay [3] relates to Gram-positive Staphylococcus aureus (S. aureus) 29213. Kind of assay: Antibacterial activity, microbroth dilution MIC, S. aureus 29213. Type of assay: cell-based. The conditions noted are these: Staphylococcus aureus; S. aureus 29213, microbroth dilution; read-out: MIC, 29213.
In assay [4] the test system is quinolone resistant E. coli LZ3111. Kind of assay: Antibacterial activity, MIC, quinolone resistant E. coli LZ3111. Type of assay: cell-based, Escherichia coli. The conditions noted are these: Escherichia coli, read-out: MIC, LZ3111. The text has this: (§1) The antibacterial activity from a microbroth dilution method may be presented as the minimum inhibitory concentration (MIC in […]). The MIC value is the lowest concentration of a drug which prevents macroscopically visible bacterial growth under test conditions.
Mutations in these regions are known to confer a high level resistance to the quinolone class of antibiotics.

Assay [5] concerns resistant K. pneumoniae MXX1232 (MDR clinical isolate). Kind of assay: Antibacterial activity, MIC, resistant K. pneumoniae MXX1232. Type of assay: cell-based, Klebsiella pneumoniae. As to conditions: Klebsiella pneumoniae; resistant K. pneumoniae MMX1232, MDR clinical isolate; read-out: MIC MMX1232.
The subject of assay [6] is resistant A. baumannii MXX2240 (MDR clinical isolate). Kind of assay: Antibacterial activity, MIC, resistant A. baumannii MXX2240. Type of assay: cell-based, Acinetobacter baumannii. The conditions noted are these: Acinetobacter baumannii, resistant A. baumannii MMX2240, MDR clinical isolate; read-out: MIC MMX2240.
In assay [7] the test system is Acinetobacter baumannii (A. baumannii) BAA747. Kind of assay: Antibacterial activity, MIC, A. baumannii BAA747. As to conditions: Acinetobacter baumannii; A. baumannii BAA747; read-out: MIC BAA747. It is filed as cell-based.
Assay [8] relates to Pseudomonas aeruginosa (P. aeruginosa) 27853. Kind of assay: Antibacterial activity, MIC, P. aeruginosa 27853. Type of assay: cell-based. As to conditions: Pseudomonas aeruginosa, P. aeruginosa 27853; read-out: MIC 27853.
Source text: as §1
Antibacterial activity of test compounds against the Gram-negative bacterium Pseudomonas aeruginosa (P. aeruginosa) 27853 is shown in Table 5.

Assay [9] concerns super sensitive Gram-negative Escherichia coli (E. coli) BAS849. Kind of assay: Antibacterial activity, microbroth dilution MIC, E. coli BAS849. Type of assay: cell-based. As to conditions: Escherichia coli; E. coli BAS849, microbroth dilution; read-out: MIC, BAS849.
Assay [10] concerns E. coli ELZ4251 (MDR clinical isolate). Kind of assay: Antibacterial activity, MIC, MDR E. coli ELZ4251. It is filed as cell-based, Escherichia coli. The conditions noted are these: Escherichia coli, E. coli ELZ4251, MDR clinical isolate; read-out: MIC ELZ4251.
Assay [11] relates to E. coli ELZ4000 (MDR clinical isolate). Kind of assay: Antibacterial activity, MIC, MDR E. coli ELZ4000. The conditions noted are these: Escherichia coli; E. coli ELZ4000, MDR clinical isolate; read-out: MIC ELZ4000. Type of assay: cell-based, Escherichia coli.
The test system of assay [12] is Haemophilus influenzae (H. influenzae) 49247. Kind of assay: Antibacterial activity, MIC, H. influenzae 49247. The conditions noted are these: Haemophilus influenzae; H. influenzae 49247; read-out: MIC 49247. It is filed as cell-based. A digest of the protocol: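 A microbroth dilution method gave the minimum inhibitory concentration for each compound against H. influenzae 49247, a Gram-negative bacterium. MIC means the smallest concentration of drug at which no macroscopically visible bacterial growth appears under the conditions of the test.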

The subject of assay [13] is Neisseria meningitidis (N. meningitidis) 13090. Kind of assay: Antibacterial activity, MIC, N. meningitidis 13090. Type of assay: cell-based. As to conditions: Neisseria meningitidis; N. meningitidis 13090; read-out: MIC 13090.
Assay [14] concerns Moraxella catarrhalis (M. catarrhalis) 25238. Kind of assay: Antibacterial activity, MIC, M. catarrhalis 25238. It is filed as cell-based. As to conditions: Moraxella catarrhalis, M. catarrhalis 25238; read-out: MIC 25238.

Converted amounts (≈) assume the structure as drawn.

For the compound `CCc1c(-c2cnc(N(C)C)nc2)[nH]c(=O)c(C(=O)O)c1O` [Cpd 20, 6-[2-(dimethylamino)pyrimidin-5-yl]-5-ethyl-4-hydroxy-2-oxo-1,2-dihydropyridine-3-carboxylic acid], the MIC in [1] lay within 12.5 to 150 µg/mL (≈ 41.1 to 493 µM); in [2], 12.5 to 150 µg/mL (≈ 41.1 to 493 µM); in assay [3], 12.5 to 150 µg/mL (≈ 41.1 to 493 µM); in [4] it was 3.5 to 12.5 µg/mL (≈ 11.5 to 41.1 µM); in [5] it was 12.5 to 150 µg/mL (≈ 41.1 to 493 µM); in assay [6], 3.5 to 12.5 µg/mL (≈ 11.5 to 41.1 µM). For the same compound, the MIC in assay [7], in assay [8] and in assay [9] was 12.5 to 150 µg/mL (≈ 41.1 to 493 µM) throughout.

`CCc1c(-c2ccc(OC)cc2)[nH]c(=O)c(C(=O)O)c1O` [Cpd 25, 5-ethyl-4-hydroxy-6-(4-methoxyphenyl)-2-oxo-1,2-dihydropyridine-3-carboxylic acid]: the MIC in [1] fell in the range of 3.5 to 12.5 µg/mL (≈ 12.1 to 43.2 µM); in assay [10], 12.5 to 150 µg/mL (≈ 43.2 to 519 µM); in assay [3] it was 12.5 to 150 µg/mL (≈ 43.2 to 519 µM); in assay [4] it was 12.5 to 150 µg/mL (≈ 43.2 to 519 µM); in [5] it was 12.5 to 150 µg/mL (≈ 43.2 to 519 µM); in assay [6], 1 to 3.5 µg/mL (≈ 3.46 to 12.1 µM). Also, the results for the MIC in [7], in assay [9] and in [11] were 3.5 to 12.5 µg/mL (≈ 12.1 to 43.2 µM), less than 1 µg/mL and 12.5 to 150 µg/mL (≈ 43.2 to 519 µM), respectively.

Take `CCc1c(-c2ccc(N3CC[C@@H](O)C3)cc2)[nH]c(=O)c(C(=O)O)c1O` [Cpd 124, 5-ethyl-4-hydroxy-6-{4-[(3R)-3-hydroxypyrrolidin-1-yl]phenyl}-2-oxo-1,2-dihydropyridine-3-carboxylic acid]: the MIC in assay [1] is less than 1 µg/mL; in assay [10], 12.5 to 150 µg/mL (≈ 36.3 to 436 µM); in assay [12], less than 1 µg/mL; in assay [3], 1 to 3.5 µg/mL (≈ 2.9 to 10.2 µM); in assay [4] it was 12.5 to 150 µg/mL (≈ 36.3 to 436 µM); in [5], 12.5 to 150 µg/mL (≈ 36.3 to 436 µM). Moreover, the MIC is 12.5 to 150 µg/mL (≈ 36.3 to 436 µM) in [6]; less than 1 µg/mL in assay [13]; less than 1 µg/mL in assay [7]; less than 1 µg/mL in assay [14]; less than 1 µg/mL in assay [9]; 12.5 to 150 µg/mL (≈ 36.3 to 436 µM) in assay [11].

Take `CCc1c(-c2ccc(N3CCC(O)C3)cc2)[nH]c(=O)c(C(=O)O)c1O` (stereo not shown) [Cpd 126, 5-ethyl-4-hydroxy-6-[4-(3-hydroxypyrrolidin-1-yl)phenyl]-2-oxo-1,2-dihydropyridine-3-carboxylic acid]: the MIC was less than 1 µg/mL in assay [1]; 12.5 to 150 µg/mL (≈ 36.3 to 436 µM) in [10]; less than 1 µg/mL in assay [12]; 1 to 3.5 µg/mL (≈ 2.9 to 10.2 µM) in assay [3]; 12.5 to 150 µg/mL (≈ 36.3 to 436 µM) in assay [4]; 12.5 to 150 µg/mL (≈ 36.3 to 436 µM) in [5]. Also, the MIC in assay [6] is 12.5 to 150 µg/mL (≈ 36.3 to 436 µM); in [13] it was less than 1 µg/mL; in assay [7] it was less than 1 µg/mL; in assay [8], 3.5 to 12.5 µg/mL (≈ 10.2 to 36.3 µM); in assay [14] it was less than 1 µg/mL; in [9], less than 1 µg/mL. Moreover, the MIC in assay [11] was in the range of 12.5 to 150 µg/mL (≈ 36.3 to 436 µM).

Take `CCc1cc(C(=O)O)c(=O)[nH]c1-c1ccc(N2CCC(NC3CC3)C2)cc1` (stereo not shown) [Cpd 173, 6-{4-[3-(cyclopropylamino)pyrrolidin-1-yl]phenyl}-5-ethyl-2-oxo-1,2-dihydropyridine-3-carboxylic acid]: the MIC in [1] lay within 1 to 3.5 µg/mL (≈ 2.72 to 9.53 µM); in assay [2], 1 to 3.5 µg/mL (≈ 2.72 to 9.53 µM); in [3], 12.5 to 150 µg/mL (≈ 34 to 408 µM); in assay [4], 12.5 to 150 µg/mL (≈ 34 to 408 µM); in [5] it was 12.5 to 150 µg/mL (≈ 34 to 408 µM); in assay [6], 12.5 to 150 µg/mL (≈ 34 to 408 µM). Further, the MIC was 3.5 to 12.5 µg/mL (≈ 9.53 to 34 µM) in assay [7], 12.5 to 150 µg/mL (≈ 34 to 408 µM) in assay [8] and less than 1 µg/mL in [9].
